Holding throughout (type): cell-based, human
Experiment [1] has as its system BT-549 breast carcinoma cells. Briefly: Drug cytotoxicity (adriamycin) in BT-549 breast carcinoma cells. The conditions noted are these: BT549 cells containing a control vector. The method, then:
(§1) A control vector, E1A or the E1A mutants (ΔN or ΔCR2) were introduced into tumor cells via retroviral mediated gene transfer and analyzed for drug cytoxicity within a few days of gene transfer. Cell populations were treated with adriamycin or tumor necrosis factor a (or both).

In the next experiment the test system is Snos2 osteosarcoma cells. Briefly: Drug cytotoxicity (adriamycin, TNF) in Snos2 osteosarcoma cells. The conditions noted are these: Snos2 cells with control vector, doses tested. As for the experimental part:
as §1

The subject of another experiment is U2OS osteosarcoma cells. Briefly: Drug cytotoxicity (adriamycin, TNF) in U2OS osteosarcoma cells. The following applies: U2OS cells with control vector, doses tested. As for the experimental part:
as §1

For `COc1cccc2c1C(=O)c1c(O)c3c(c(O)c1C2=O)C[C@@](O)(C(=O)CO)C[C@@H]3O[C@H]1C[C@H](N)[C@H](O)[C@H](C)O1` [adriamycin], the “apoptosis following drug treatment” value is listed as “unable to induce apoptosis” in experiment [1] and “do not undergo apoptosis” with Snos2 osteosarcoma cells. Further, the “apoptosis / cell death following drug treatment” value in the experiment with U2OS osteosarcoma cells is on record as “do not undergo apoptosis”.

These data come from patent publication US20040048821A1, “Enhancement of drug cytotoxicity in tumor cells containing mutant Rb gene” (Cold Spring Harbor Laboratory, priority 1997, published 2004).
